Source: patent US20250230435A1, “METHODS OF TREATMENT OF GNAQ AND GNA11 DRIVEN DISEASE” (THE FRANCIS CRICK INSTITUTE LIMITED, priority 2022, published 2025)
“Also recorded” adds a separate entry of the source.

Columns and labels:
Format in all cases: cell-based, human
[1] = test system: GNAQ c.548G>A, p.(R183Q) allele; test: Western blot knock-down of HA-tagged Gαq in TIME cells expressing wild-type or p.R183Q; conditions: 50 nM siRNA, 24 h after transfection, TIME cells stably expressing wild-type or p.R183Q HA-tagged Gαq
Method: (§1) FIG. 5—Designing and testing siRNA specific for GNAQ c.548G>A, p.(R183Q) A. Schematic representation of the 6 siRNAs designed to target specifically GNAQ c.548G>A allele. B. TIME cells stably expressing either wild-type or p.R183Q HA-tagged Gαq were transfected by 50 nM siRNAs targeting GNAQ c.548G>A, p.(R183Q) allele and analysed by western-blot 24 h after transfection. […] C. (average of three experiments, * p<0.05). D. Schematic representation of the 6 siRNAs designed to target specifically GNA11 c.547C>T p.(R183C). E. TIME cells stably expressing either wild-type or p.R183C HA-tagged Gα11 were transfected by 25 nM siRNAs targeting GNA11 c.547C>T, p.(R183C) allele and analysed by western-blot 24 h after transfection. […] (average of three experiments, * p<0.05).
(§2) hTERT-immortalised microvascular endothelial cells (TIME-ATCC CRL-4025TM, “TIME” cells) and their transgenic derivatives were maintained in EBMTM-2 Endothelial Cell Growth Basal Medium-2 (Lonza CC-3156), supplemented with EGMTM-2 BulletKit (Lonza CC-3162) and 3% fetal bovine serum (Gibco).
(§3) TIME cells were transduced with lentiviral vectors to induce stable expression of HA-tagged forms of GNAQ WT, GNAQ p.(R183Q), GNA11 WT, GNA11 p.(R183C) cDNAs (FIG. 4), and we confirmed presence of the mutations in the genomic DNA by Sanger sequencing (FIG. 4B). […]

[2] = test system: GNAQR183Q mutant allele; test: Expression of GNAQR183Q mutant allele in UPMM1, mutant-specific primers; conditions: UPMM1 cells
Method: (§4) FIG. 10—GNAQ and CRAC inhibition in uveal melanoma cells. […] UPMM1 cells were non-transfected or transfected with non-target control siRNA (siSCRA) or with 2 distinct GNAQR183Q-mutant specific siRNAs (siGNAQmut3 and siGNAQmut6) and expression of the mutant allele was measured by using GNAQR183Q-mutant specific primers previously validated (forward primer: […] (SEQ ID NO:25); reverse primer: […] (SEQ ID NO:26). B. Transfection with siRNAs silencing GNAQ mutant allele reduced GPCR ligand-induced calcium intra-cellular accumulation. Cells loaded with Fluo-8 calcium marker were stimulated by the GPCR ligand leukotriene D4 (LTD4) and fluorescence was recorded over the time. C. […] Cells loaded with Fluo-8 calcium probe were treated by CM4620 1, 3 or 10 μM, stimulated by the GPCR ligand leukotriene D4 (LTD4) and fluorescence was recorded over the time.

[3] = test system: GNA11 c.547C>T, p.(R183C) allele; test: Western blot knock-down of HA-tagged Gα11 in TIME cells expressing wild-type or p.R183C; conditions: 25 nM siRNA, 24 h after transfection, TIME cells stably expressing wild-type or p.R183C HA-tagged Gα11
Method: as §1, §2, §3

[4] = test system: TIME GNAQR183Q cells; test: Fluo-8 AM assay, thrombin-induced intracellular calcium, GNAQ variant cells; conditions: 1 μM for 20 minutes, thrombin 1 U/ml
Method: (§5) FIG. 3—CRAC channel inhibition and variant-specific siRNAs rescue aberrant calcium signalling in variant cells. A-B. TIME-GNAQ^WT (A) or −GNAQ^R183Q (B) were loaded with intracellular calcium probe Fluo-8 and treated for 20 minutes with vehicle or 1 μM […]. Following treatment, cells were stimulated with thrombin 1 U/ml and fluorescence recorded for 300 seconds. The graphs represent an avarage of three independent experiments performed in technical quadruplicates. C. Means +/−SD deviation of areas under the curve calculated from three experiments summarised in […]. Statistical comparisons were performed by two-tailed paired t test (n.s=not statistically significant, * p=0.0284). […] IP1 concentration was measured 48 hours after transfection and shown as mean +/−SD of three independent experiments. […] TIME-GNAQ p.(R183Q); NFAT-Luc were transfected with non-target siRNA (siSCRA) or two siRNAs for specific silencing of the variant GNAQ allele (siGNAQmut 1 and 3) and luciferase reporter activity was measured 48 hours after transfection in complete medium or after four hours of starvation, shown as mean +/−SD of % change of cells transfected with mock in three independent experiments. […]

[5] = test system: TIME GNAQWT cells; test: Fluo-8 AM assay, thrombin-induced intracellular calcium, GNAQ WT cells; conditions: 1 μM for 20 minutes, thrombin 1 U/ml
Method: as §5

[6] = test system: TIME GNAQR183Q cells; test: In vitro angiogenesis (endothelial tube formation) assay, GNAQ variant cells; conditions: 1 μM, in presence of thrombin 0.3 U/ml, vs vehicle
From the text: (§6) FIG. 8—In vitro angiogenesis is disrupted by mutant GNAQ and rescued by CRAC channel inhibition. (A) Representative images captured with EVOS Floid Imaging System following Calcein AM staining during in vitro endothelial cell tube formation of TIME cells stably expressing either GNAQ WT or GNAQ R183Q. […] Statistical significance calculated using two-tailed unpaired t-test on three independent experiments (**** p<0.0001). […] Results shown as mean of a technical triplicate for each of 4 independent experiments. Statistical analysis performed by two-tailed paired t-test on four independent experiments (n.s=not statistically significant, * p=0.0125). […] Results shown as mean +/−SD of three independent experiments, and statistical analysis performed by two-tailed paired t-test (n.s=not statistically significant, * p=0.04).
(§7) TIME endothelial cell models were used to assess angiogenesis using a standard in vitro angiogenesis assay. […] Furthermore, thrombin GPCR activation disrupted angiogenesis in GNAQR183Q more than in GNAQWT (FIG. 8C).

[7] = test system: TIME GNAQWT cells; test: In vitro angiogenesis (endothelial tube formation) assay, GNAQ WT cells; conditions: 1 μM, in presence of thrombin 0.3 U/ml, vs vehicle
From the text: as §6, §7

[8] = test system: UPMM1 UM cell line; test: Fluo-8 assay, LTD4-induced intracellular calcium in UPMM1; conditions: UPMM1, Fluo-8, 1, 3 or 10 μM, leukotriene D4 stimulation
Method: as §4

Compound: CUUAGAGUUCAAGUCCCCA[dT][dT] (antisense GGGGACUUGAACUCUAAGC; dTdT overhangs, chemistry not fully specified) [siGNAQmut #3, siRNA to GNAQ c.548G>A p.(R183Q)]
- specific knock-down of variant Gαq protein over wild-type (western blot) [1]: specific knock-down of variant protein over wild-type counterparts
- expression of the GNAQR183Q mutant allele [2]: reduced expression of the mutant allele

Compound: CUGCGGGUCUGCGUGCCCA[dT][dT] (antisense UGGGCACGCAGACCCGCAG; dTdT overhangs, chemistry not fully specified) [siGNA11mut #4, siRNA to GNA11 c.547C>T p.(R183C)]
- specific knock-down of variant Gα11 protein over wild-type (western blot) [3]: specific knock-down of variant protein over wild-type counterparts

Compound: UGCUUAGAGUUCAAGUCCC[dT][dT] (antisense GGGACUUGAACUCUAAGCA; dTdT overhangs, chemistry not fully specified) [siGNAQmut #1, siRNA to GNAQ c.548G>A p.(R183Q)]
- specific knock-down of variant Gαq protein over wild-type (western blot) [1]: specific knock-down of variant protein over wild-type counterparts

Compound: AGAGUUCAAGUCCCCACCA[dT][dT] (antisense UGGUGGGGACUUGAACUCU; dTdT overhangs, chemistry not fully specified) [siGNAQmut #6, siRNA to GNAQ c.548G>A p.(R183Q)]
- expression of the GNAQR183Q mutant allele [2]: reduced expression of the mutant allele

Compound: Cc1cccc(F)c1C(=O)Nc1cnc(-c2cc3c(cc2Cl)OC(F)(F)O3)cn1 [CM4620]
- thrombin-induced calcium signalling, GNAQ-variant cells [4]: inhibits the variant cell response; also recorded: markedly rescuing the prolonged calcium intracellular peak
- thrombin-induced calcium signalling, GNAQ WT cells [5]: limited effects
- tubule formation (total length of the network), GNAQR183Q [6]: improved tubule formation
- tubule formation (total length of the network), GNAQWT [7]: no statistically significant difference; also recorded: not GNAQWT
- GPCR ligand (LTD4)-induced accumulation of intracellular calcium [8]: reduced the GPCR ligand-induced accumulation of intracellular calcium
